Entries after “also recorded” stand apart in the source; their conditions may differ.

This is an account of results in patent publication US7105485B2, “HO-1 suppressor as a diagnostic and prognostic test for dementing diseases” (The Sir Mortimer B. Davis - Jewish General Hospital, priority 2000, dated 2006).

Assay [1] deals with HO-1 mRNA. Description: Induction of HO-1 mRNA in rat astroglia by cysteamine treatment (Northern blot). Format: cell-based. The conditions noted are these: rat astroglia grown in standard culture media, CSH 880 μM x 6 hr. On the procedure: (§1) Brain cell cultures: Rat astroglia were prepared as described in Schipper et al. (1999), herein incorporated by reference, as follows:
(§2) Pregnant Sprague-Dawley rats were obtained from Charles River Breeding Farms. Primary neural cell cultures were prepared from 1-day old neonates by mechanoenzymatic dissociation of cerebral tissue […] as previously described by Chopra et al., (1997), herein incorporated by reference. Cells were grown in Ham's F-12 and high-glucose DMEM (50:50 vol/vol) supplemented with 10 mM HEPES. 5% heat-inactivated horse serum, 5% heat-inactivated fetal bovine serum, and penicillin/streptomycin (50 U/ml and 50 μg/ml, respectively). […] The cultures were then incubated under the above-mentioned conditions for 6 days, at which time >98% of the cells composing the monolayer were astroglia, as determined by immunohistochemical labeling for the astrocyte-specific marker glial fibrillary acidic protein, as described by Chopra et al. (1995), herein incorporated by reference. […]
(§3) RNA isolation and Northern analysis: Cultured astrocytes were harvested using a rubber policeman, and cytoplasmic RNA was isolated using an acid guanidinium thiocyanate/phenol/chloroform extraction method, as described by Chomczynski and Sacchi (1987), herein incorporated by reference. […] Resulting bands on the autoradiograph were analyzed using a phosphorimager S1 densitometer. […]

In assay [2] the test system is HO-1 mRNA. In words: HOS bioassay: effect of 24 h pre-incubation with plasma or plasma fractions on the induced HO-1 mRNA response of rat astroglia (Northern blot). Type of assay: cell-based. The conditions noted are these: normal subjects taking antioxidants; vitamin E 400 U/day (N1); multiple very high-dose antioxidants (N2, N3). On the procedure: as §1, §2, §3

With `NCCS` [Cysteamine], the “HO-1 mRNA bands after cysteamine (CSH) treatment” value is “induces strong HO-1 mRNA bands; also recorded: induces robust HO-1 mRNA bands” in the assay with HO-1 mRNA [1] and “intense HO-1 mRNA signal” in the assay on HO-1 mRNA [1] (listed as CSH).

Consider vitamin E, for which the “astrocyte HO-1 mRNA response to CSH with plasma of normal subjects on antioxidants” value in the assay with HO-1 mRNA [2] is recorded as “does not affect”.
